Data from patent US7704995B2 (Exelixis, Inc., priority 2003, dated 2010).

The compounds below were run against T1, Chk1 (Homo sapiens, UniProt O14757) (assay: Chk1 kinase assay: incorporation of γ-33P ATP into immobilized myelin basic protein). Conditions: Table 11; Chk1 only; read-out: Chk1 IC50.
T1 construct: purchased Upstate Biotechnology
T1 sequence (O14757 1-476): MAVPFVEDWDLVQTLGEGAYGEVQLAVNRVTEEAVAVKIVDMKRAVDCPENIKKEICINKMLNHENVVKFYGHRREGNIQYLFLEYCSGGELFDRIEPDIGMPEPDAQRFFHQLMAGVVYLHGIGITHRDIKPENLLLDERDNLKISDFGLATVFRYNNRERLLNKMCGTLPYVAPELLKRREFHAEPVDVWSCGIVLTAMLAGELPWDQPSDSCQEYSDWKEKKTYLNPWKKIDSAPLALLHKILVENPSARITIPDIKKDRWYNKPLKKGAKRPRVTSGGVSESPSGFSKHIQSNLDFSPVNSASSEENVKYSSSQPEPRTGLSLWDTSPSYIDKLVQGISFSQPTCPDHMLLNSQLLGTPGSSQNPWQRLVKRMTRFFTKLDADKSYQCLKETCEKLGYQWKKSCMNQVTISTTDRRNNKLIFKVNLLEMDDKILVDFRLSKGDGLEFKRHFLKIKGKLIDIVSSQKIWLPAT
Assay type: biochemical
Procedure, shortened: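 Immobilized-MBP radiometric kinase assay, room temperature for 1 h; ATP 10 μM (Chk1, 10 nM enzyme) or 30 μM (Chk2, 20 nM enzyme) with 33P tracer. Values are IC50s, with Ki derived from them.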
Work on Nc1ncc(-c2cccc(CO)c2)nc1-c1nc([C@@H]2CCCNC2)n[nH]1 [Example 724, [3-(5-amino-6{3-[(3R)-piperidin-3-yl]-1H-1,2,4-triazol-5-yl}pyrazin-2-yl)phenyl]methanol] yielded an IC50 of 50 to 1000 nM. With Nc1ncc(-c2cccc(CO)c2)nc1-c1nc([C@H]2CCCNC2)n[nH]1 [Example 725, [3-(5-amino-6-{3[(3S)-piperidin-3-yl]-1H-1,2,4-triazol-5-yl}pyrazin-2-yl)phenyl]methanol] the IC50 was 50 to 1000 nM. Nc1ncc(-c2cccc(C(=O)N[C@@H]3c4ccccc4C[C@@H]3O)c2)nc1C(=O)N[C@H]1CCNC1 [Example 726, 3-amino-6-[3-({[(1R,2S)-2-hydroxy-2,3-dihydro-1H-inden-1-yl]amino}carbonyl)phenyl]-N-[(3S)-pyrrolidin-3-yl]pyrazine-2-carboxamide] was tested, and the IC50 was less than 50 nM. CCN1CC[C@H](NC(=O)c2nc(-c3cccc(C(=O)N[C@H]4c5ccccc5C[C@H]4O)c3)cnc2N)C1 [Example 727, 3-amino-N-[(3S)-1-ethylpyrrolidin-3-yl]-6-[3-({[(1S,2R)-2-hydroxy-2,3-dihydro-1H-inden-1-yl]amino}carbonyl)phenyl]pyrazine-2-carboxamide] was tested, and the IC50 was 1000 to 10000 nM. In the case of CC(C)(C)OC(=O)N1CCCC(NC(=O)c2nc(-c3cccc(C(=O)N[C@H]4CCc5ccccc54)c3)cnc2N)C1 (stereo partly drawn) [Example 728, 1,1-dimethylethyl 3-({[3-amino-6-(3-{[(1S)-2,3-dihydro-1H-inden-1-ylamino]carbonyl}phenyl)pyrazin-2-yl]carbonyl}amino)piperidine-1-carboxylate], the IC50 is reported as no less than 10000 nM. In the case of Nc1ncc(-c2cccc(C(=O)N[C@H]3CCc4ccccc43)c2)nc1C(=O)NC1CCCNC1 (stereo partly drawn) [Example 729, 3-amino-6-(3-{[(1S)-2,3-dihydro-1H-inden-1-ylamino]carbonyl}phenyl)-N-piperidin-3-ylpyrazine-2-carboxamide], the IC50 is reported as less than 50 nM. With CCN1CCCC(NC(=O)c2nc(-c3cccc(C(=O)N[C@H]4CCc5ccccc54)c3)cnc2N)C1 (stereo partly drawn) [Example 730, 3-amino-6-(3-{[(1S)-2,3-dihydro-1H-inden-1-ylamino]carbonyl}phenyl)-N-(1-ethylpiperidin-3-yl)pyrazine-2-carboxamide] the IC50 was 50 to 1000 nM. Compound CCN1CC[C@H](NC(=O)c2nc(-c3cccc(C(=O)N[C@@H]4c5ccccc5C[C@@H]4O)c3)cnc2N)C1 [Example 731, 3-amino-N-[(3S)-1-ethylpyrrolidin-3-yl]-6-[3-({[(1R,2S)-2-hydroxy-2,3-dihydro-1H-inden-1-yl]amino}carbonyl)phenyl]pyrazine-2-carboxamide] has an IC50 of 50 to 1000 nM. Compound CCN1CCCC(c2nnc(-c3nc(-c4cccc(CO)c4)cnc3N)[nH]2)C1 (stereo not shown) [Example 732, (3-{5-amino-6-[5-(1-ethylpiperidin-3-yl)-4H-1,2,4-triazol-3-yl]pyrazin-2-yl}phenyl)methanol] has an IC50 of 1000 to 10000 nM. Work on CCN1CCCC(c2nnc(-c3nc(-c4cccc(CN[C@H]5CCc6ccccc65)c4)cnc3N)[nH]2)C1 (stereo partly drawn) [Example 733, 5-(3-{[(1S)-2,3-dihydro-1H-inden-1-ylamino]methyl}phenyl)-3-[5-(1-ethylpiperidin-3-yl)-4H-1,2,4-triazol-3-yl]pyrazin-2-amine] yielded an IC50 of 50 to 1000 nM. CCn1nc(-c2nc(-c3cccc(C(=O)N[C@@H]4CCc5ccccc54)c3)cnc2N)nc1C1CCCNC1 (stereo partly drawn) [Example 734, 3-[5-amino-6-(1-ethyl-5-piperidin-3-yl-1H-1,2,4-triazol-3-yl)pyrazin-2-yl]-N-[(1R)-2,3-dihydro-1H-inden-1-yl]benzamide] was tested, and the IC50 was 50 to 1000 nM. Cn1nc(-c2nc(-c3cccc(C(=O)N[C@H]4CCc5ccccc54)c3)cnc2N)nc1C1CCCNC1 (stereo partly drawn) [Example 735, 3-(5-amino-6-(1-methyl-5-piperidin-3-yl-1H-1,2,4-triazol-3-yl)pyrazin-2-yl]-N-[(1S)-2,3-dihydro-1H-inden-1-yl]benzamide] showed an IC50 of 50 to 1000 nM. CN1CCCC(c2n[nH]c(-c3nc(-c4cccc(CO)c4)cnc3N)n2)C1 (stereo not shown) [Example 736, (3-{5-amino-6-[3-(1-methylpiperidin-3-yl)-1H-1,2,4-triazol-5-yl]pyrazin-2-yl}phenyl)methanol] showed an IC50 of 1000 to 10000 nM. CN1CCCC(c2n[nH]c(-c3nc(-c4cccc(CN[C@H]5CCc6ccccc65)c4)cnc3N)n2)C1 (stereo partly drawn) [Example 737, 5-(3-{[(1S)-2,3-dihydro-1H-inden-1-ylamino]methyl}phenyl)-3-[3-(1-methylpiperidin-3-yl)-1H-1,2,4-triazol-5-yl]pyrazin-2-amine] was tested, and the IC50 was 50 to 1000 nM. With COc1ccc(CNC(=O)c2cccc(-c3cnc(N)c(C(=O)N[C@H]4CCN(C(=O)OC(C)(C)C)C4)n3)c2)cc1 [Example 738, 1,1-dimethylethyl (3S)-3-{[(3-amino-6-{3-[({[4-(methyloxy)phenyl]methyl}amino)carbonyl]phenyl}pyrazin-2-yl)carbonyl]amino}pyrrolidine-1-carboxylate] the IC50 was 50 to 1000 nM. With CC(C)(C)OC(=O)N1CC[C@H](NC(=O)c2nc(-c3cccc(C(=O)NCc4ccc(OC(F)(F)F)cc4)c3)cnc2N)C1 [Example 739, 1,1-dimethylethyl (3S)-3-({[3-amino-6-(3-{[({4-[(trifluoromethyl)oxy]phenyl}methyl)amino]carbonyl}phenyl)pyrazin-2-yl]carbonyl}amino)pyrrolidine-1-carboxylate] the IC50 was 50 to 1000 nM. CC(C)(C)OC(=O)N1CC[C@H](NC(=O)c2nc(-c3cccc(C(=O)NCc4c(F)cccc4Cl)c3)cnc2N)C1 [Example 740, 1,1-dimethylethyl (3S)-3-[({3-amino-6-[3-({[(2-chloro-6-fluorophenyl)methyl]amino}carbonyl)phenyl]pyrazin-2-yl}carbonyl)amino]pyrrolidine-1-carboxylate] gave an IC50 of 1000 to 10000 nM. Compound CSc1ccc(CNC(=O)c2cccc(-c3cnc(N)c(C(=O)N[C@H]4CCN(C(=O)OC(C)(C)C)C4)n3)c2)cc1 [Example 741, 1,1-dimethylethyl (3S)-3-{[(3-amino-6-{3-[({[4-(methylthio)phenyl]methyl}amino)carbonyl]phenyl}pyrazin-2-yl)carbonyl]amino}pyrrolidine-1-carboxylate] has an IC50 of 1000 to 10000 nM. Compound CC(C)(C)OC(=O)N1CC[C@H](NC(=O)c2nc(-c3cccc(C(=O)NC4Cc5ccccc5C4)c3)cnc2N)C1 [Example 742, 1,1-dimethylethyl (3S)-3-{[(3-amino-6-{3-[(2,3-dihydro-1H-inden-2-ylamino)carbonyl]phenyl}pyrazin-2-yl)carbonyl]amino}pyrrolidine-1-carboxylate] has an IC50 of 50 to 1000 nM. Compound COc1ccc(CNC(=O)c2cccc(-c3cnc(N)c(C(=O)N[C@H]4CCNC4)n3)c2)cc1 [Example 743, 3-amino-6-{3-[({[4-(methyloxy)phenyl]methyl}amino)carbonyl]phenyl}-N-[(3S)-pyrrolidin-3-yl]pyrazine-2-carboxamide] has an IC50 of 50 to 1000 nM. Compound Nc1ncc(-c2cccc(C(=O)NCc3ccc(OC(F)(F)F)cc3)c2)nc1C(=O)N[C@H]1CCNC1 [Example 744, 3-amino-N-[(3S)-pyrrolidin-3-yl]-6-(3-{[({4-[(trifluoromethyl)oxy]phenyl}methyl)amino]carbonyl}phenyl)pyrazine-2-carboxamide] has an IC50 of less than 50 nM. Nc1ncc(-c2cccc(C(=O)NC3Cc4ccccc4C3)c2)nc1C(=O)N[C@H]1CCNC1 [Example 745, 3-amino-6-{3-[(2,3-dihydro-1H-inden-2-ylamino)carbonyl]phenyl}-N-[(3S)-pyrrolidin-3-yl]pyrazine-2-carboxamide] gave an IC50 of 50 to 1000 nM.
